Earlier results as cited in PMC7235863, “Benzamide Derivatives Targeting the Cell Division Protein FtsZ: Modifications of the Linker and the Benzodioxane Scaffold and Their Effects on Antimicrobial Activity” (Antibiotics, 2020).
In brackets after ≈: the same amount, converted by molar mass.

Experiments:
[1] = tested on: E. coli AcrAB–; conditions: ref 10 (Z2, Z3), 11 (TXY436), 12 (I, II); cited from earlier work
[2] = tested on: Methicillin Sensitive S. aureus; conditions: Methicillin Sensitive S. aureus; ref 10 (Z2, Z3), 11 (TXY436), 12 (I, II); cited from earlier work
[3] = tested on: E. coli WildType; design: method as in earlier work; conditions: ref 10 (Z2, Z3), 11 (TXY436), 12 (I, II); cited from earlier work
[4] = tested on: E. coli ATCC 25922; design: method as in PMID 31750973; conditions: in-house reference compounds ref 12; cited from earlier work
[5] = tested on: Sa cells; design: method as in PMID 31750973; conditions: Sa cells incubated with the compounds ref 12; cited from earlier work
[6] = tested on: E. coli N43; design: method as in PMID 31750973; conditions: E. coli N43 (AcrAB knockout); in-house reference compounds ref 12; cited from earlier work
[7] = tested on: ESBL E. coli; design: method as in PMID 31750973; conditions: in-house reference compounds ref 12; cited from earlier work
[8] = tested on: selected Gram-negative strains; design: method as in PMID 24637241; conditions: after genetic inactivation of AcrAB or its inhibition by PaβN ref 11; cited from earlier work

Structure (SMILES) | MIC [1] [µg/mL] | MIC [2] [µg/mL] | MIC [3] [µg/mL] | MIC [4] [µg/mL] | Morphometric analysis by TEM [5] | MIC [6] [µg/mL] | MIC [7] [µg/mL] | MIC [8] [µg/mL]
CC[n+]1c(/C=C/N(C)c2ccccc2)n(-c2ccccc2)c2ccc(-c3nc4ccccc4s3)cc21 [Compound Z2] | 2.5 | 0.6 | 20 | – | – | – | – | –
CSc1nc(-c2ccc3c(c2)OC(COc2ccc(F)c(C(N)=O)c2F)CO3)no1 (stereo not drawn) [I] | 16 (≈ 36.7 µM) | 0.6 (≈ 1.38 µM) | – | >100 | significant elongation in cellular dimension, bacterial swelling and cell desegregation | 16 (≈ 36.7 µM) | >100 | –
CN(C)CNC(=O)c1c(F)ccc(OCc2nc3cc(Cl)cnc3s2)c1F [TXY436] | 8 (≈ 19.4 µM) | 1.0 (≈ 2.42 µM) | – | – | – | – | – | 8 (≈ 19.4 µM)
